Measured values as given in ChEMBL document CHEMBL1145593, “Design, synthesis and evaluation of potent thymidylate synthase X inhibitors” (Bioorg Med Chem Lett, 2008).
Calls of active or inactive are those of the source. No cut-off for these calls is given here.

What was measured:
[1] = target: T1, Probable flavin-dependent thymidylate synthase (Paramecium bursaria Chlorella virus 1) (UniProt O41156); test: Reversal of inhibition of PBCV1 Thy X at 20 uM in presence of dUMP
T1 sequence (whole entry): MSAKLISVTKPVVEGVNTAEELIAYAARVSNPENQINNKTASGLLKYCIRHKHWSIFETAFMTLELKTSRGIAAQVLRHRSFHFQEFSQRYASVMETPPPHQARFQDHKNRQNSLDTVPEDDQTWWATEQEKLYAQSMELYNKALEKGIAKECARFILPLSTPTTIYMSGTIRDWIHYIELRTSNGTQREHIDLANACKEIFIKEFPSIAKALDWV

[2] = target: T2, Probable flavin-dependent thymidylate synthase (Paramecium bursaria Chlorella virus 1, UniProt O41156); test: Inhibition of PBCV1 Thymidylate synthase X
T2 sequence (O41156 whole entry): T1 sequence (whole entry)

[3] = target: T1, Probable flavin-dependent thymidylate synthase (Paramecium bursaria Chlorella virus 1); test: Inhibition of PBCV1 Thymidylate synthase X in presence of triton X100 surfactant
[4] = target: T1, Probable flavin-dependent thymidylate synthase (Paramecium bursaria Chlorella virus 1); test: Inhibition of PBCV1 Thymidylate synthase X in presence of bovine serum albumin surfactant

SMILES | Activity [1] | IC50 [2] [nM] | Ki [2] [nM] | Activity [3] | Activity [4]
CCOC(=O)[C@@H]1CSC(c2ccccc2)N1C(=O)c1cn(CCCNC(=O)C(F)(F)F)nn1 (stereo partly drawn) | inactive | 57 | 57 | Active | Active
CCCCCCC(=O)N(CC(=O)O)C[C@@H]1CSC(c2ccccc2)N1C(=O)c1ccccc1 (stereo partly drawn) | Active | 130 | 130 | Active | Active
CCOC(=O)[C@@H]1CSC(c2ccccc2)N1C(=O)c1cn(CCCCCCCO)nn1 (stereo partly drawn) | – | – | 3500 | – | –
CCOC(=O)[C@@H]1CSC(c2ccccc2)N1C(=O)c1cn(CCc2ccsc2)nn1 (stereo partly drawn) | – | – | 1000 | – | –
CCOC(=O)[C@@H]1CSC(c2ccccc2)N1C(=O)c1cn(CCc2ccc(F)cc2)nn1 (stereo partly drawn) | – | – | 2000 | – | –
